# Laboratory results from PubChem BioAssay AID248 (DTP/NCI, 2004).
# “And” between values parts separate entries of the source, which are not always exact repeats. Equal entries are not always repeated. Inconclusive results and toxic doses are left out.
# Test system: L1210 leukemia ip in BDF1 mice, survival T/C
# Assay: NCI In Vivo Anticancer Drug Screen. Data for tumor model L1210 Leukemia (intraperitoneal) in B6D2F1 (BDF1) mice
# Settings: higher = longer survival
# Summary of the method: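 Survival endpoint. Drug-treated group vs vehicle group, expressed as T divided by C. Tumor passaged by transplantation.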
smiles,measurement,setting,value
Nc1nc(=S)c2ncn(C3CC(O)C(CO)O3)c2[nH]1 (stereo unspecified),T/C,"endpoint: mean survival time, dose: 0.15 mg/kg/injection, schedule: Q01DX015 (ip), vehicle: carboxymethylcellulose (CMC)",121 % of control
same,T/C,"endpoint: mean survival time, dose: 0.31 mg/kg/injection, schedule: Q01DX009 (ip), vehicle: saline",119 % of control
same,T/C,"endpoint: mean survival time, dose: 0.32 mg/kg/injection, schedule: Q01DX015 (ip), vehicle: carboxymethylcellulose (CMC)",124 % of control
same,T/C,"endpoint: mean survival time, dose: 0.62 mg/kg/injection, schedule: Q01DX005 (ip), vehicle: clinical formulation",153 % of control
same,T/C,"endpoint: mean survival time, dose: 0.62 mg/kg/injection, schedule: Q01DX009 (ip), vehicle: saline",150 % of control
same,T/C,"endpoint: mean survival time, dose: 0.62 mg/kg/injection, schedule: Q01DX015 (ip), vehicle: carboxymethylcellulose (CMC)",151 % of control
same,T/C,"endpoint: mean survival time, dose: 0.63 mg/kg/injection, schedule: Q03HX008 (ip), vehicle: saline",162 % of control
same,T/C,"endpoint: mean survival time, dose: 0.63 mg/kg/injection, schedule: Q03HX024 (ip), vehicle: saline",167 % of control
same,T/C,"endpoint: mean survival time, dose: 0.9 mg/kg/injection, schedule: Q01DX009 (ip), vehicle: saline with Tween-80",150 % of control
same,T/C,"endpoint: mean survival time, dose: 1.25 mg/kg/injection, schedule: Q01DX005 (ip), vehicle: clinical formulation",150 % of control and 171 % of control
same,T/C,"endpoint: mean survival time, dose: 1.25 mg/kg/injection, schedule: Q01DX005 (ip), vehicle: saline",154 % of control
same,T/C,"endpoint: mean survival time, dose: 1.25 mg/kg/injection, schedule: Q01DX005 (ip), vehicle: water",163 % of control
same,T/C,"endpoint: mean survival time, dose: 1.25 mg/kg/injection, schedule: Q01DX009 (ip), vehicle: saline",156 % of control
same,T/C,"endpoint: mean survival time, dose: 1.25 mg/kg/injection, schedule: Q01DX015 (ip), vehicle: carboxymethylcellulose (CMC)",180 % of control and 218 % of control
same,T/C,"endpoint: mean survival time, dose: 1.25 mg/kg/injection, schedule: Q03HX008 (ip), vehicle: saline",155 % of control
same,T/C,"endpoint: mean survival time, dose: 1.25 mg/kg/injection, schedule: Q03HX016 (ip), vehicle: saline",163 % of control
same,T/C,"endpoint: mean survival time, dose: 1.25 mg/kg/injection, schedule: Q03HX024 (ip), vehicle: saline",157 % of control
same,T/C,"endpoint: mean survival time, dose: 1.56 mg/kg/injection, schedule: Q01DX009 (ip), vehicle: saline",161 % of control and 173 % of control
same,T/C,"endpoint: mean survival time, dose: 1.87 mg/kg/injection, schedule: Q01DX015 (ip), vehicle: carboxymethylcellulose (CMC)",113 % of control
same,T/C,"endpoint: mean survival time, dose: 2.5 mg/kg/injection, schedule: Q01DX001 (ip), vehicle: saline",120 % of control
same,T/C,"endpoint: mean survival time, dose: 2.5 mg/kg/injection, schedule: Q01DX002 (ip), vehicle: Klucel (hydroxypropylcellulose) (HPC)",177 % of control
same,T/C,"endpoint: mean survival time, dose: 2.5 mg/kg/injection, schedule: Q01DX005 (ip), vehicle: clinical formulation",173 % of control and 178 % of control
same,T/C,"endpoint: mean survival time, dose: 2.5 mg/kg/injection, schedule: Q01DX005 (ip), vehicle: saline",171 % of control
same,T/C,"endpoint: mean survival time, dose: 2.5 mg/kg/injection, schedule: Q01DX005 (ip), vehicle: water",173 % of control
same,T/C,"endpoint: mean survival time, dose: 2.5 mg/kg/injection, schedule: Q01DX009 (ip), vehicle: saline",161 % of control
same,T/C,"endpoint: mean survival time, dose: 2.5 mg/kg/injection, schedule: Q01DX015 (ip), vehicle: carboxymethylcellulose (CMC)",155 % of control and 187 % of control
same,T/C,"endpoint: mean survival time, dose: 2.5 mg/kg/injection, schedule: Q03HX008 (ip), vehicle: saline",156 % of control
same,T/C,"endpoint: mean survival time, dose: 2.5 mg/kg/injection, schedule: Q03HX016 (ip), vehicle: saline",167 % of control
same,T/C,"endpoint: mean survival time, dose: 2.5 mg/kg/injection, schedule: Q04DX003 (ip), vehicle: saline",155 % of control
same,T/C,"endpoint: mean survival time, dose: 2.5 mg/kg/injection, schedule: Q08DX002 (ip), vehicle: saline",124 % of control
same,T/C,"endpoint: mean survival time, dose: 3.12 mg/kg/injection, schedule: Q01DX009 (ip), vehicle: saline",191 % of control and 206 % of control
same,T/C,"endpoint: mean survival time, dose: 4.5 mg/kg/injection, schedule: Q01DX009 (ip), vehicle: saline with Tween-80",208 % of control
same,T/C,"endpoint: mean survival time, dose: 5.0 mg/kg/injection, schedule: Q01DX005 (ip), vehicle: clinical formulation",166 % of control and 202 % of control
same,T/C,"endpoint: mean survival time, dose: 5.0 mg/kg/injection, schedule: Q01DX005 (ip), vehicle: saline",158 % of control
same,T/C,"endpoint: mean survival time, dose: 5.0 mg/kg/injection, schedule: Q01DX005 (ip), vehicle: water",192 % of control
same,T/C,"endpoint: mean survival time, dose: 5.0 mg/kg/injection, schedule: Q01DX009 (ip), vehicle: saline",156 % of control
same,T/C,"endpoint: mean survival time, dose: 5.0 mg/kg/injection, schedule: Q01DX015 (ip), vehicle: carboxymethylcellulose (CMC)",166 % of control
same,T/C,"endpoint: mean survival time, dose: 5.0 mg/kg/injection, schedule: Q03HX024 (ip), vehicle: saline",97 % of control
same,T/C,"endpoint: mean survival time, dose: 5.0 mg/kg/injection, schedule: Q04DX003 (ip), vehicle: saline",152 % of control
same,T/C,"endpoint: mean survival time, dose: 6.0 mg/kg/injection, schedule: Q01DX005 (oral), vehicle: saline",108 % of control
same,T/C,"endpoint: mean survival time, dose: 6.25 mg/kg/injection, schedule: Q01DX009 (ip), vehicle: saline",153 % of control
same,T/C,"endpoint: mean survival time, dose: 7.0 mg/kg/injection, schedule: Q01DX015 (ip), vehicle: carboxymethylcellulose (CMC)",150 % of control
same,T/C,"endpoint: mean survival time, dose: 7.5 mg/kg/injection, schedule: Q01DX015 (ip), vehicle: carboxymethylcellulose (CMC)",151 % of control
same,T/C,"endpoint: mean survival time, dose: 10.0 mg/kg/injection, schedule: Q01DX005 (ip), vehicle: clinical formulation",154 % of control and 198 % of control
same,T/C,"endpoint: mean survival time, dose: 10.0 mg/kg/injection, schedule: Q01DX005 (ip), vehicle: saline",219 % of control
same,T/C,"endpoint: mean survival time, dose: 10.0 mg/kg/injection, schedule: Q01DX005 (ip), vehicle: water",156 % of control
same,T/C,"endpoint: mean survival time, dose: 10.0 mg/kg/injection, schedule: Q01DX009 (ip), vehicle: saline",95 % of control
same,T/C,"endpoint: mean survival time, dose: 10.0 mg/kg/injection, schedule: Q01DX015 (ip), vehicle: carboxymethylcellulose (CMC)",114 % of control
same,T/C,"endpoint: mean survival time, dose: 10.0 mg/kg/injection, schedule: Q03HX008 (ip), vehicle: saline",86 % of control
same,T/C,"endpoint: mean survival time, dose: 10.0 mg/kg/injection, schedule: Q04DX003 (ip), vehicle: Klucel (hydroxypropylcellulose) (HPC)",156 % of control
same,T/C,"endpoint: mean survival time, dose: 10.0 mg/kg/injection, schedule: Q04DX003 (ip), vehicle: saline",170 % of control
same,T/C,"endpoint: mean survival time, dose: 10.0 mg/kg/injection, schedule: Q08DX002 (ip), vehicle: saline",154 % of control
same,T/C,"endpoint: mean survival time, dose: 12.0 mg/kg/injection, schedule: Q01DX005 (oral), vehicle: saline",116 % of control
same,T/C,"endpoint: mean survival time, dose: 15.0 mg/kg/injection, schedule: Q01DX015 (ip), vehicle: carboxymethylcellulose (CMC)",106 % of control and 155 % of control and 236 % of control
same,T/C,"endpoint: mean survival time, dose: 20.0 mg/kg/injection, schedule: Q01DX002 (ip), vehicle: Klucel (hydroxypropylcellulose) (HPC)",115 % of control
same,T/C,"endpoint: mean survival time, dose: 20.0 mg/kg/injection, schedule: Q01DX005 (ip), vehicle: saline",97 % of control
same,T/C,"endpoint: mean survival time, dose: 20.0 mg/kg/injection, schedule: Q04DX003 (ip), vehicle: saline",190 % of control
same,T/C,"endpoint: mean survival time, dose: 20.0 mg/kg/injection, schedule: Q08DX002 (ip), vehicle: saline",157 % of control
same,T/C,"endpoint: mean survival time, dose: 25.0 mg/kg/injection, schedule: Q01DX009 (ip), vehicle: saline",94 % of control
same,T/C,"endpoint: mean survival time, dose: 40.0 mg/kg/injection, schedule: Q04DX003 (ip), vehicle: Klucel (hydroxypropylcellulose) (HPC)",150 % of control
same,T/C,"endpoint: mean survival time, dose: 40.0 mg/kg/injection, schedule: Q08DX002 (ip), vehicle: saline",168 % of control
same,T/C,"endpoint: mean survival time, dose: 50.0 mg/kg/injection, schedule: Q01DX005 (ip), vehicle: saline",90 % of control
same,T/C,"endpoint: mean survival time, dose: 50.0 mg/kg/injection, schedule: Q01DX009 (ip), vehicle: saline",86 % of control
same,T/C,"endpoint: mean survival time, dose: 60.0 mg/kg/injection, schedule: Q04DX003 (oral), vehicle: saline",120 % of control
same,T/C,"endpoint: mean survival time, dose: 80.0 mg/kg/injection, schedule: Q08DX002 (ip), vehicle: saline",153 % of control
same,T/C,"endpoint: mean survival time, dose: 96.0 mg/kg/injection, schedule: Q01DX005 (oral), vehicle: saline",91 % of control
same,T/C,"endpoint: mean survival time, dose: 100.0 mg/kg/injection, schedule: Q01DX005 (ip), vehicle: saline",155 % of control
same,T/C,"endpoint: mean survival time, dose: 120.0 mg/kg/injection, schedule: Q04DX003 (oral), vehicle: saline",113 % of control
same,T/C,"endpoint: mean survival time, dose: 125.0 mg/kg/injection, schedule: Q01DX015 (ip), vehicle: carboxymethylcellulose (CMC)",114 % of control
same,T/C,"endpoint: mean survival time, dose: 145.0 mg/kg/injection, schedule: Q01DX001 (ip), vehicle: saline with Tween-80",160 % of control
same,T/C,"endpoint: mean survival time, dose: 240.0 mg/kg/injection, schedule: Q04DX003 (oral), vehicle: saline",119 % of control
same,T/C,"endpoint: mean survival time, dose: 250.0 mg/kg/injection, schedule: Q01DX015 (ip), vehicle: carboxymethylcellulose (CMC)",96 % of control
same,T/C,"endpoint: mean survival time, dose: 480.0 mg/kg/injection, schedule: Q04DX003 (oral), vehicle: saline",96 % of control
same,T/C,"endpoint: mean survival time, dose: 960.0 mg/kg/injection, schedule: Q08DX002 (oral), vehicle: saline",100 % of control
same,T/C,"endpoint: median survival time, dose: 0.06 mg/kg/injection, schedule: Q03HX024 (ip), vehicle: saline",112 % of control
same,T/C,"endpoint: median survival time, dose: 0.07 mg/kg/injection, schedule: Q03HX024 (ip), vehicle: saline",112 % of control
same,T/C,"endpoint: median survival time, dose: 0.12 mg/kg/injection, schedule: Q03HX024 (ip), vehicle: saline",121 % of control
same,T/C,"endpoint: median survival time, dose: 0.13 mg/kg/injection, schedule: Q03HX024 (ip), vehicle: saline",121 % of control
same,T/C,"endpoint: median survival time, dose: 0.5 mg/kg/injection, schedule: Q03HX024 (ip), vehicle: saline",101 % of control
same,T/C,"endpoint: median survival time, dose: 1.0 mg/kg/injection, schedule: Q03HX024 (ip), vehicle: saline",104 % of control
same,T/C,"endpoint: median survival time, dose: 32.0 mg/kg/injection, schedule: Q03HX024 (ip), vehicle: saline",153 % of control
